Literature values as cited in patent US8236331B2, “Cosmetic cooling composition” (Coty Deutschland GmbH, priority 2004, dated 2012).

Conditions: WO 03/007909, no period of time specified

## CCCCCCCCCCCCCCCC(=O)OC [methyl palmitate]
  cooling effect as described: long-lasting
